We go through one compound from ChEMBL document CHEMBL5728508, “Inhibitors of lysine specific demethylase-1” (2021).

For the test, the target named is Lysine-specific histone demethylase 1A (Homo sapiens, UniProt O60341). The test is described as follows: In Vitro Enzyme Inhibition Assay: The enzymatic assay of LSD1 activity is based on Time Resolved-Fluorescence Resonance Energy Transfer (TR-FRET) detection. […] Plates were read by EnVision Multilabel Reader in TR-FRET mode (excitation at 320 nm, emission at 615 nm and 665 nm) after 1 hour incubation at room temperature. (In general: Time-resolved FRET reads energy transfer from a long-lived donor to a nearby acceptor.)

In the case of `CCn1c(-c2ccc(OC)cc2)c(-c2ccc(C#N)c(F)c2)cc(N2CCC(N)CC2)c1=O`, the half-inhibitory concentration (IC50) (as a rule, the midpoint of a concentration-inhibition curve) is under 0.1 µM.
